Patent US9833497B2, “Human originated EGF domain proteins and use of the same” (CHENGDU SOURCEBIO LIMITED-LIABILITY COMPANY, priority 2013, dated 2017)

Legend:
Type in all cases: cell-based
Proteus vulgaris = experiment: MIC against Gram-negative bacteria: Proteus vulgaris; conditions: 5×10^5 CFU/mL
Procedure, shortened: (§1)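 Purified recombinant human EGF domain proteins are tested by broth dilution in LB against a 5×10^5 CFU/mL inoculum, with two-fold serial dilutions run in triplicate. Plates are incubated at 37° C with shaking, and the MIC is read as the lowest protein concentration without growth.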

Aeromonas hydrophila = experiment: MIC against Gram-negative bacteria: Aeromonas hydrophila; conditions: 5×10^5 CFU/mL
Procedure, shortened: as §1

Proteus mirabilis = experiment: MIC against Gram-negative bacteria: Proteus mirabilis; conditions: 5×10^5 CFU/mL
Procedure, shortened: as §1

Klebsiella pneumonia = experiment: MIC against Gram-negative bacteria: Klebsiella pneumonia; conditions: 5×10^5 CFU/mL
Procedure, shortened: as §1

E. coli BL21 = experiment: MIC against Gram-negative bacteria: E. coli BL21; conditions: 5×10^5 CFU/mL
Procedure, shortened: as §1

Serratia marcescens = experiment: MIC against Gram-negative bacteria: Serratia marcescens; conditions: 5×10^5 CFU/mL
Procedure, shortened: as §1

Enterobacter cloacae = experiment: MIC against Gram-negative bacteria: Enterobacter cloacae; conditions: 5×10^5 CFU/mL
Procedure, shortened: as §1

E. coli DH5α = experiment: Antibacterial activity: MIC and growth curve against E. coli DH5α in 96-well plate; conditions: minimal inhibitory concentration against E. coli DH5α; 96-well plate, 5×10^5 CFU/mL, 37° C., judged after 8 h
Procedure, shortened: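 MIC taken as lowest protein level with no bacterial growth, tracked by A600 every 30 min during 37 °C, 175 rpm culture. Two-fold protein series 50-12.5 μg/mL final, triplicate wells, against 5×10^5 CFU/mL of LB-washed mid-log cells.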

Pseudomonas aeruginosa = experiment: MIC against Gram-negative bacteria: Pseudomonas aeruginosa; conditions: 5×10^5 CFU/mL
Procedure, shortened: as §1

Moraxella catarrhalis = experiment: MIC against Gram-negative bacteria: Moraxella catarrhalis; conditions: 5×10^5 CFU/mL
Procedure, shortened: as §1

Citrobacter diversus = experiment: MIC against Gram-negative bacteria: Citrobacter diversus; conditions: 5×10^5 CFU/mL
Procedure, shortened: as §1

[1] = P. vulgaris, 10 h cultivation at 37° C.
[2] = A. hydrophila, 10 h cultivation at 37° C.
[3] = P. mirabilis, 10 h cultivation at 37° C.
[4] = K. pneumonia, 10 h cultivation at 37° C.
[5] = E. coli BL21, 10 h cultivation at 37° C.
[6] = S. marcescens, 10 h cultivation at 37° C.
[7] = E. cloacae, 10 h cultivation at 37° C.
[8] = P. aeruginosa, 10 h cultivation at 37° C.
[9] = M. catarrhalis, 10 h cultivation at 37° C.
[10] = C. diversus, 10 h cultivation at 37° C.
[11] = Proteus vulgaris, 96-well plate, 37° C., 10 h
[12] = Aeromonas hydrophila, 96-well plate, 37° C., 10 h
[13] = Proteus mirabilis, 96-well plate, 37° C., 10 h
[14] = Klebsiella pneumonia, 96-well plate, 37° C., 10 h
[15] = E. coli BL21, 96-well plate, 37° C., 10 h
[16] = Serratia marcescens, 96-well plate, 37° C., 10 h
[17] = Enterobacter cloacae, 96-well plate, 37° C., 10 h
[18] = Pseudomonas aeruginosa, 96-well plate, 37° C., 10 h
[19] = Moraxella catarrhalis, 96-well plate, 37° C., 10 h
[20] = Citrobacter diversus, 96-well plate, 37° C., 10 h

PRT416 (DVDECAPPAEPCGKGHRCVNSPGSFRCECKTGYYFDGISRMCV; listed as Homo sapiens)
MIC (Proteus vulgaris; [1]): 25 µg/mL
MIC (Aeromonas hydrophila; [2]): 25 µg/mL
MIC (Proteus mirabilis; [3]): 50 µg/mL
MIC (Klebsiella pneumonia; [4]): 25 µg/mL
MIC (E. coli BL21; [5]): 25 µg/mL
MIC (Serratia marcescens; [6]): 12.5 µg/mL
MIC (Enterobacter cloacae; [7]): 50 µg/mL
MIC (E. coli DH5α): 50 µg/mL
MIC (Pseudomonas aeruginosa; [8]): 12.5 µg/mL
MIC (Moraxella catarrhalis; [9]): 25 µg/mL
MIC (Citrobacter diversus; [10]): 12.5 µg/mL

PRT813 (FGVNCSSSCSCGGAPCHGVTGQCRCPPGRTGEDCE; listed as Homo sapiens)
MIC (μg/mL) P. vulgaris (Proteus vulgaris; [1]): 50 µg/mL
MIC (μg/mL) A. hydrophila (Aeromonas hydrophila; [2]): 50 µg/mL
MIC (μg/mL) P. mirabilis (Proteus mirabilis; [3]): 25 µg/mL
MIC (μg/mL) K. pneumonia (Klebsiella pneumonia; [4]): 50 µg/mL
MIC (μg/mL) E. coli BL21 (E. coli BL21; [5]): 50 µg/mL
MIC (μg/mL) S. marcescens (Serratia marcescens; [6]): 12.5 µg/mL
MIC (μg/mL) E. cloacae (Enterobacter cloacae; [7]): 25 µg/mL
MIC (E. coli DH5α): 50 µg/mL
MIC (μg/mL) P. aeruginosa (Pseudomonas aeruginosa; [8]): 50 µg/mL
MIC (μg/mL) M. catarrhalis (Moraxella catarrhalis; [9]): 25 µg/mL
MIC (μg/mL) C. diversus (Citrobacter diversus; [10]): 25 µg/mL

PRT1202 (GYDFCSERHNCMENSICRNLNDRAVCSCRDGFRALREDNAYCE; listed as Homo sapiens)
MIC against P. vulgaris (Proteus vulgaris; [11]): 25 µg/mL
MIC against A. hydrophila (Aeromonas hydrophila; [12]): 50 µg/mL
MIC against P. mirabilis (Proteus mirabilis; [13]): 12.5 µg/mL
MIC against K. pneumonia (Klebsiella pneumonia; [14]): 50 µg/mL
MIC against E. coli BL21 (E. coli BL21; [15]): 12.5 µg/mL
MIC against S. marcescens (Serratia marcescens; [16]): 50 µg/mL
MIC against E. cloacae (Enterobacter cloacae; [17]): 12.5 µg/mL
MIC (E. coli DH5α): 50 µg/mL
MIC against P. aeruginosa (Pseudomonas aeruginosa; [18]): 25 µg/mL
MIC against M. catarrhalis (Moraxella catarrhalis; [19]): 50 µg/mL
MIC against C. diversus (Citrobacter diversus; [20]): 12.5 µg/mL

PRT72 (NKLDLPCPRGWWGNPVCGPCHCAVSKGFDPDCN; listed as Homo sapiens)
MIC (μg/mL) P. vulgaris (Proteus vulgaris; [11]): 25 µg/mL
MIC (μg/mL) A. hydrophila (Aeromonas hydrophila; [12]): 12.5 µg/mL
MIC (μg/mL) P. mirabilis (Proteus mirabilis; [13]): 12.5 µg/mL
MIC (μg/mL) K. pneumonia (Klebsiella pneumonia; [14]): 12.5 µg/mL
MIC (μg/mL) E. coli BL21 (E. coli BL21; [15]): 12.5 µg/mL
MIC (μg/mL) S. marcescens (Serratia marcescens; [16]): 100 µg/mL
MIC (μg/mL) E. cloacae (Enterobacter cloacae; [17]): 25 µg/mL
MIC (E. coli DH5α): 12.5 µg/mL
MIC (μg/mL) P. aeruginosa (Pseudomonas aeruginosa; [18]): 25 µg/mL
MIC (μg/mL) M. catarrhalis (Moraxella catarrhalis; [19]): 12.5 µg/mL
MIC (μg/mL) C. diversus (Citrobacter diversus; [20]): 12.5 µg/mL

PRT654 (DVNECMGEEHCAPHGECLNSHGSFFCLCAPGFVSAEGGTSCQ; listed as Homo sapiens)
MIC P. vulgaris (Proteus vulgaris; 96-well plate, 37° C., 10 h): 12.5 µg/mL
MIC A. hydrophila (Aeromonas hydrophila; 96-well plate, 37° C., 10 h): 50 µg/mL
MIC P. mirabilis (Proteus mirabilis; 96-well plate, 37° C., 10 h): 25 µg/mL
MIC K. pneumonia (Klebsiella pneumonia; 96-well plate, 37° C., 10 h): 50 µg/mL
MIC E. coli BL21 (E. coli BL21; 96-well plate, 37° C., 10 h): 50 µg/mL
MIC S. marcescens (Serratia marcescens; 96-well plate, 37° C., 10 h): 25 µg/mL
MIC E. cloacae (Enterobacter cloacae; 96-well plate, 37° C., 10 h): 12.5 µg/mL
MIC (E. coli DH5α): 12.5 µg/mL
MIC P. aeruginosa (Pseudomonas aeruginosa; 96-well plate, 37° C., 10 h): 12.5 µg/mL
MIC M. catarrhalis (Moraxella catarrhalis; 96-well plate, 37° C., 10 h): 50 µg/mL
MIC C. diversus (Citrobacter diversus; 96-well plate, 37° C., 10 h): 12.5 µg/mL

PRT770 (FRDPCDPNPCQNDGICVNVKGMASCRCISGHAFFYTGERCQ; listed as Homo sapiens)
MIC (μg/mL) P. vulgaris (Proteus vulgaris; [1]): 12.5 µg/mL
MIC (μg/mL) A. hydrophila (Aeromonas hydrophila; [2]): 25 µg/mL
MIC (μg/mL) P. mirabilis (Proteus mirabilis; [3]): 50 µg/mL
MIC (μg/mL) K. pneumonia (Klebsiella pneumonia; [4]): 12.5 µg/mL
MIC (μg/mL) E. coli BL21 (E. coli BL21; [5]): 12.5 µg/mL
MIC (μg/mL) S. marcescens (Serratia marcescens; [6]): 50 µg/mL
MIC (μg/mL) E. cloacae (Enterobacter cloacae; [7]): 50 µg/mL
MIC (E. coli DH5α): 50 µg/mL
MIC (μg/mL) P. aeruginosa (Pseudomonas aeruginosa; [8]): 50 µg/mL
MIC (μg/mL) M. catarrhalis (Moraxella catarrhalis; [9]): 25 µg/mL
MIC (μg/mL) C. diversus (Citrobacter diversus; [10]): 12.5 µg/mL
